The nature of the data set: T1 relaxation of 13C1-pyruvate in human full blood. It is filed as physicochemical. The conditions noted are these: human full blood at 37° C.

Drawing on US20110020235A1, “MR METHODS OF GRADING A TUMOR USING AN IMAGING MEDIUM THAT COMPRISES HYPERPOLARISED 13C-PYRUVATE” (priority 2007, published 2011), this text covers T1 relaxation for one compound.

On to `CC(=O)C(=O)O` [13C1-pyruvate], for which the T1 relaxation result was “about 42 s”.
